Laboratory results: ChEMBL document CHEMBL1127701, “Antineoplastic agents. 278. Isolation and structure of axinastatins 2 and 3 from a western Caroline Island marine sponge” (1994)
Converted amounts (≈) assume the structure as drawn. Where a SMILES comes first, the peptide text is derived from it.

Assays:
Format in all cases: functional
OVCAR-3 = experiment: Tested for cytostatic activity against ovarian OVCAR-3 cell line; conditions: Homo sapiens
NCI-H460 = experiment: Tested for cytostatic activity against lung-NSC […] cell line; conditions: Homo sapiens
SF-295 = experiment: Tested for cytostatic activity against CNS SF-295 cell line; conditions: Homo sapiens
KM-20L2 = experiment: Tested for cytostatic activity against colon KM20L2 cell line; conditions: Homo sapiens
A498 = experiment: Tested for cytostatic activity against renal A498 cell line; conditions: Homo sapiens
SK-MEL-5 = experiment: Tested for cytostatic activity against melanoma SK-MEL-5 cell line; conditions: Homo sapiens
P388 = experiment: Tested for in vitro cytotoxicity against the murine leukemia P388 cell line; conditions: Mus musculus, read-out: ED50 (the source's name)

SMILES	GI50 (OVCAR-3)	GI50 (NCI-H460)	GI50 (SF-295)	GI50 (KM-20L2)	GI50 (A498)	GI50 (SK-MEL-5)	EC50 (P388)
CC[C@H](C)[C@@H]1NC(=O)[C@H](Cc2ccccc2)NC(=O)[C@@H]2CCCN2C(=O)[C@H](CC(N)=O)NC(=O)[C@H](C(C)C)NC(=O)[C@@H]2CCCN2C(=O)[C@H](CC(C)C)NC1=O (cyclo(FILPVNP))	0.0072 µg/mL (≈ 0.00922 µM)	0.033 µg/mL (≈ 0.0423 µM)	0.18 µg/mL (≈ 0.23 µM)	0.055 µg/mL (≈ 0.0704 µM)	0.11 µg/mL (≈ 0.141 µM)	0.012 µg/mL (≈ 0.0154 µM)	
CC(C)C[C@@H]1NC(=O)[C@H](C(C)C)NC(=O)[C@H](Cc2ccccc2)NC(=O)[C@@H]2CCCN2C(=O)[C@H](CC(N)=O)NC(=O)[C@H](C(C)C)NC(=O)[C@@H]2CCCN2C1=O (cyclo(FVLPVNP))	0.058 µg/mL (≈ 0.0756 µM)	0.19 µg/mL (≈ 0.248 µM)	0.35 µg/mL (≈ 0.456 µM)	0.23 µg/mL (≈ 0.3 µM)	0.38 µg/mL (≈ 0.495 µM)	0.068 µg/mL (≈ 0.0887 µM)	0.02 µg/mL (≈ 0.0261 µM)
